Experiments:
[1] = molecular target: T1, purified human Factor XIa (Homo sapiens, UniProt P03951); assay: Factor XIa Assay; type: biochemical; conditions: fluorogenic substrate Z-Gly-Pro-Arg-AFC 100 μM, 40 pM enzyme, pH 7.4, read-out: F11a IC50
T1 construct: purified human Factor XIa; purchased Sekisui Diagnostics
Experimental: The effectiveness of a compound of the present invention as an inhibitor of Coagulation Factor XIa can be determined using a relevant purified serine protease, and an appropriate synthetic substrate. The rate of hydrolysis of the chromogenic or fluorogenic substrate by the relevant serine protease was measured both in the absence and presence of compounds of the present invention. Assays were conducted at room temperature or at 37° C. […] A decrease in the rate of fluorescence change in the presence of inhibitor is indicative of enzyme inhibition. Such methods are known to one skilled in the art. […]
Factor XIa determinations were made in 50 mM HEPES buffer at pH 7.4 containing 150 mM NaCl, 5 mM CaCl2, and 0.1% PEG 8000 (polyethylene glycol; JT Baker or Fisher Scientific). Determinations were made using purified human Factor XIa at a final concentration of 40 pM (Sekisui Diagnostics) and he synthetic substrate, Z-Gly-Pro-Arg-AFC, TFA salt (Sigma #C0980) at a concentration of 100 μM.
Activity assays were performed by diluting a stock solution of substrate at least tenfold to a final concentration ≦0.1 Km into a solution containing enzyme or enzyme equilibrated with inhibitor. Times required to achieve equilibration between enzyme and inhibitor were determined in control experiments. Initial velocities of product formation in the absence (VO) or presence of inhibitor (Vi) were measured. Assuming competitive inhibition, and that unity is negligible compared Km/[S], [I]/e, and [I]/e (where [S], [I], and e respectively represent the total concentrations, of substrate, inhibitor and enzyme), the equilibrium constant (Ki) for dissociation of the inhibitor from the enzyme can be obtained from the dependence of VO/Vi on [I] shown in the following equation.

[2] = molecular target: T2, purified Human plasma kallikrein (Homo sapiens, UniProt P03952); assay: Kallikrein Assay; type: biochemical; conditions: Plasma Kallekrein IC50; fluorogenic substrate Acetyl-K-P-R-AFC, 0.5 nM enzyme, pH 7.4; read-out: PK IC50
T2 construct: yields a heavy chain (371 amino acids) and a light chain (248 amino acids); purchased Enzyme Research Laboratories
T2 sequence (P03952 391-638 limits assumed): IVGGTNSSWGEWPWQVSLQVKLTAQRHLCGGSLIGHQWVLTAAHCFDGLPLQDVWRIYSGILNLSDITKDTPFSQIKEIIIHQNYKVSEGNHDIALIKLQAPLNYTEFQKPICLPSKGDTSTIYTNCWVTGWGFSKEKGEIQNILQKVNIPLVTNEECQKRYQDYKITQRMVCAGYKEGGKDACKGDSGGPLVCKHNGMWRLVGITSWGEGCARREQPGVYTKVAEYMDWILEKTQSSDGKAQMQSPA
T2 sequence (P03952 20-390 partner limits assumed): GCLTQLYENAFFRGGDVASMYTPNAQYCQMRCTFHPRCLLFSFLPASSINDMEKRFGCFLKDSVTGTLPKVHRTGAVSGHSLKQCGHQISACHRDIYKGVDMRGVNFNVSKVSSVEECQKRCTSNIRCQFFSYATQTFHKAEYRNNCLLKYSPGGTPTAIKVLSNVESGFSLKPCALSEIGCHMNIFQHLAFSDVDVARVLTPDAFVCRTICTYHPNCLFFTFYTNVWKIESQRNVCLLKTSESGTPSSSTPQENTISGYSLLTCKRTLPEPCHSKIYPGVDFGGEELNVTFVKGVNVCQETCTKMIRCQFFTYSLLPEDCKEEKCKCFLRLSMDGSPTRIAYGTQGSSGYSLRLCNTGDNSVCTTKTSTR
Experimental: The effectiveness of a compound of the present invention as an inhibitor of Kallikrein can be determined using a relevant purified serine protease, and an appropriate synthetic substrate. The rate of hydrolysis of the chromogenic or fluorogenic substrate by the relevant serine protease was measured both in the absence and presence of compounds of the present invention. Assays were conducted at room temperature or at 37° C. […] A decrease in the rate of fluorescence change in the presence of inhibitor is indicative of enzyme inhibition. Such methods are known to one skilled in the art. The results of this assay are expressed as the inhibitory constant, K1.
Kallikrein determinations were made in 50 mM HEPES buffer at pH 7.4 containing 150 mM NaCl, 5 mM CaCl2, and 0.1% PEG 8000 (polyethylene glycol; Fisher Scientific). Determinations were made using purified Human plasma kallikrein at a final concentration of 0.5 nM (Enzyme Research Laboratories) and the synthetic substrate, Acetyl-K—P—R-AFC (Sigma # C6608) at a concentration of […].
Times required to achieve equilibration between enzyme and inhibitor were determined in control experiments. The reactions were performed under linear progress curve conditions and fluorescence increase measured at 405 Ex/510 Em nm. […] IC50 was determined by inflection point from a four parameter logistic curve fit. Ki was calculated using the Cheng Prusoff equation, Ki=IC50/(1+([S]/Km)).

T1 sequence (P03951 388-625 limits assumed): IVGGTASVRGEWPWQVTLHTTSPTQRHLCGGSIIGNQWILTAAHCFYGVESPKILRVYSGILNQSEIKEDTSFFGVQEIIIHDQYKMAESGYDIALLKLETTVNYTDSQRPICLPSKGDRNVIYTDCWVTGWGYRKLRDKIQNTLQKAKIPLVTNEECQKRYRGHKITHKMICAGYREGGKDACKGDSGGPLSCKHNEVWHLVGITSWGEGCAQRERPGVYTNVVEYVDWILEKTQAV
T1 sequence (P03951 19-387 partner limits assumed): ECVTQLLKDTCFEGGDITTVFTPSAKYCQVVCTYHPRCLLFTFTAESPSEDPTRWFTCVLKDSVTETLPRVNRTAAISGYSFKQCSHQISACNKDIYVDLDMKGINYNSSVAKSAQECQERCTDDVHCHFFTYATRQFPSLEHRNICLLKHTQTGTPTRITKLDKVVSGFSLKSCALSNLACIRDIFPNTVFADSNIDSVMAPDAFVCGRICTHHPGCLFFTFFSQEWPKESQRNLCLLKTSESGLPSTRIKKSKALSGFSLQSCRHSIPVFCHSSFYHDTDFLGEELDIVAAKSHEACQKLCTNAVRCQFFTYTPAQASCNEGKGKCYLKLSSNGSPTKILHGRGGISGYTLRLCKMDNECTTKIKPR

Row | SMILES | IC50 [1] [nM] | IC50 [2] [nM]
1 | COC(=O)Nc1ccc(-c2c[nH]c(C(Cc3ccc(F)cc3)c3ccc(-c4c(C#N)ccc(Cl)c4F)c[n+]3[O-])n2)cc1 (racemic) [Example 14] | 59.9 | –
2 | COC(=O)Nc1ccc(-c2c[nH]c(C(Cc3ccc(F)cc3)c3ccc(-c4cc(Cl)ccc4OC(F)F)c[n+]3[O-])n2)cc1 (racemic) [Example 15] | 34.2 | –
3 | CC(C)OC(=O)Nc1ccc(-c2cnc(C(CC3CC3)c3ccc(-c4cc(Cl)ccc4-n4cnnn4)c[n+]3[O-])[nH]2)cc1 (racemic) [Example 46] | 2.91 | –
4 | COC(=O)Nc1ccc(-c2cnc(C(CC3CC3)c3ccc(-c4cc(Cl)ccc4-n4ccnn4)c[n+]3[O-])[nH]2)cc1 (racemic) [Example 65, 5-(5-Chloro-2-(1H-1,2,3-triazol-1-yl)phenyl)-2-(2-cyclopropyl-1-(5-(4-((methoxycarbonyl)amino)phenyl)-1H-imidazol-2-yl)ethyl)pyridine 1-oxide] | 11.9 | –
5 | COC(=O)Nc1ccc(-c2cnc(C(CC3CC3)c3ccc(-c4cc(Cl)ccc4-n4cnnc4)c[n+]3[O-])[nH]2)cc1 (racemic) [Example 66, 5-(5-chloro-2-(4H-1,2,4-triazol-4-yl)phenyl)-2-(2-cyclopropyl-1-(5-(4-((methoxycarbonyl)amino)phenyl)-1H-imidazol-2-yl)ethyl)pyridine 1-oxide] | 12.9 | –
6 | COC(=O)Nc1ccc(-c2cnc(C(CC3CC3)c3ccc(-c4cc(Cl)ccc4-n4cncn4)c[n+]3[O-])[nH]2)cc1 (racemic) [Example 68] | 631 | –
7 | COC(=O)Nc1ccc(-c2cnc(C(CC3CC3)c3ccc(-c4cc(Cl)ccc4-c4cocn4)c[n+]3[O-])[nH]2)cc1 (racemic) [Example 71] | 834 | –
8 | COC(=O)Nc1ccc(-c2cnc(C(CC3CC3)c3ccc(-c4cc(Cl)ccc4-n4cccn4)c[n+]3[O-])[nH]2)cc1 (racemic) [Example 73] | 1000 | –
9 | COC(=O)Nc1ccc(-c2cnc(C(CC3CC3)c3ccc(-c4cc(Cl)ccc4-n4cc(C(F)F)nn4)c[n+]3[O-])[nH]2)cc1 (racemic) [Example 74] | 11 | –
10 | COC(=O)Nc1ccc(-c2cnc(C(CC3CC3)c3ccc(-c4cc(Cl)ccc4-n4cc(C(F)F)cn4)c[n+]3[O-])[nH]2)cc1 (racemic) [Example 75] | 931 | –
11 | COC(=O)Nc1ccc(-c2c[nH]c(C(Cc3ccccc3)c3ccc(-c4c(F)ccc(Cl)c4F)c[n+]3[O-])n2)cc1 (single isomer, unassigned) [Example 6] | 289 | –
12 | COC(=O)Nc1ccc(-c2c[nH]c(C(Cc3ccc(F)cc3)c3ccc(-c4cc(Cl)ccc4C(F)F)c[n+]3[O-])n2)cc1 (single isomer, unassigned) [Example 12, 5-(5-chloro-2-(difluoromethyl)phenyl)-2-(2-(4-fluorophenyl)-1-(4-(4-((methoxycarbonyl)amino)phenyl)-1H-imidazol-2-yl)ethyl)pyridine 1-oxide] | 341 | –
13 | N#Cc1ccc(-c2c[nH]c(C(Cc3ccc(F)cc3)c3ccc(-c4cc(Cl)ccc4-n4cnnn4)c[n+]3[O-])n2)cc1 (single isomer, unassigned) [Example 19] | 311 | –
14 | [O-][n+]1cc(-c2cc(Cl)ccc2-n2cnnn2)ccc1C(Cc1ccc(F)cc1)c1nc(-c2ccc(Cl)cc2)c[nH]1 (single isomer, unassigned) [Example 21] | 128 | –
15 | COC(=O)Nc1ccc(-c2cnc(C(CC3CC3)c3ccc(-c4cc(Cl)ccc4-n4cnnn4)c[n+]3[O-])[nH]2)cc1 (single isomer, unassigned) [Example 27, 5-(5-chloro-2-(1H-tetrazol-1-yl)phenyl)-2-(2-cyclopropyl-1-(5-(4-((methoxycarbonyl)amino)phenyl)-1H-imidazol-2-yl)ethyl)pyridine 1-oxide] | – | 207
16 | COC(=O)Nc1ccc(-c2cnc(C(CC3CC3)c3ccc(-c4cc(Cl)ccc4-n4cnnn4)c[n+]3[O-])[nH]2)cc1 (single isomer, unassigned) [Example 28, 5-(5-chloro-2-(1H-tetrazol-1-yl)phenyl)-2-(2-cyclopropyl-1-(5-(4-((methoxycarbonyl)amino)phenyl)-1H-imidazol-2-yl)ethyl)pyridine 1-oxide] | – | 20.8
17 | N#Cc1ccc(-c2cnc(C(CC3CC3)c3ccc(-c4cc(Cl)ccc4-n4cnnn4)c[n+]3[O-])[nH]2)cc1 (single isomer, unassigned) [Example 30, 4-[2-(1-{5-[5-chloro-2-(1H-tetrazol-1-yl)phenyl]-1-oxidopyridin-2-yl}-2-cyclopropylethyl)-1H-imidazol-5-yl]benzonitrile] | 266 | –
18 | [O-][n+]1cc(-c2cc(Cl)ccc2-n2cnnn2)ccc1C(CC1CC1)c1ncc(-c2cccc(F)c2)[nH]1 (single isomer, unassigned) [Example 31] | 1000 | –
19 | N#Cc1cccc(-c2cnc(C(CC3CC3)c3ccc(-c4cc(Cl)ccc4-n4cnnn4)c[n+]3[O-])[nH]2)c1 (single isomer, unassigned) [Example 35] | 1000 | –
20 | COC(=O)Nc1ccc(-c2cnc(C(CC3CC3)c3ccc(-c4cc(Cl)ccc4-n4cnnn4)c[n+]3[O-])[nH]2)c(F)c1 (single isomer, unassigned) [Example 37] | 74.8 | –
21 | Nc1ccc(-c2cnc(C(CC3CC3)c3ccc(-c4cc(Cl)ccc4-n4cnnn4)c[n+]3[O-])[nH]2)c(Cl)n1 (single isomer, unassigned) [Example 48, 6-chloro-5-[2-(1-{5-[5-chloro-2-(1H-tetrazol-1-yl)phenyl]-1-oxidopyridin-2-yl}-2-cyclopropylethyl)-1H-imidazol-5-yl]pyridin-2-amine] | 72 | –
22 | O=C(O)c1cccc(-c2cnc(C(CC3CC3)c3ccc(-c4cc(Cl)ccc4-n4cnnn4)c[n+]3[O-])[nH]2)c1F (single isomer, unassigned) [Example 52, 3-[2-(1-{5-[5-chloro-2-(1H-tetrazol-1-yl)phenyl]-1-oxidopyridin-2-yl}-2-cyclopropylethyl)-1H-imidazol-5-yl]-2-fluorobenzoic acid] | 204 | –
23 | O=C(O)c1cccc(-c2c[nH]c(C(CC3CC3)c3ccc(-c4cc(Cl)ccc4-n4cnnn4)c[n+]3[O-])n2)c1 (single isomer, unassigned) [Example 54] | 71 | –
24 | O=C(O)c1ccc(-c2cnc(C(CC3CC3)c3ccc(-c4cc(Cl)ccc4-n4cnnn4)c[n+]3[O-])[nH]2)cc1 (single isomer, unassigned) [Example 55] | 593 | –
25 | NC(=O)c1scc(-c2cnc(C(CC3CC3)c3ccc(-c4cc(Cl)ccc4-n4cnnn4)c[n+]3[O-])[nH]2)c1F (single isomer, unassigned) [Example 59, 2-(1-(5-(5-carbamoyl-4-fluorothiophen-3-yl)-1H-imidazol-2-yl)-2-cyclopropylethyl)-5-(5-chloro-2-(1H-tetrazol-1-yl)phenyl)pyridine 1-oxide] | 110 | –
26 | COC(=O)c1scc(-c2cnc(C(CC3CC3)c3ccc(-c4cc(Cl)ccc4-n4cnnn4)c[n+]3[O-])[nH]2)c1F (single isomer, unassigned) [Example 62, Methyl 4-[2-(1-{5-[5-chloro-2-(1H-tetrazol-1-yl)phenyl]-1-oxidopyridin-2-yl}-2-cyclopropylethyl)-1H-imidazol-5-yl]-3-fluorothiophene-2-carboxylate] | 1000 | –
27 | COC(=O)Nc1ccc(-c2cnc(C(CC3CC3)c3ccc(-c4cc(Cl)ccc4-c4cnco4)c[n+]3[O-])[nH]2)cc1 (single isomer, unassigned) [Example 70] | 1000 | –
28 | COC(=O)Nc1ccc(-c2[nH]c(C(CC3CC3)c3ccc(-c4cc(Cl)ccc4-n4cnnn4)c[n+]3[O-])nc2Cl)cc1 (single isomer, unassigned) [Example 78, 5-(5-chloro-2-(1H-tetrazol-1-yl)phenyl)-2-(1-(4-chloro-5-(4-((methoxycarbonyl)amino)phenyl)-1H-imidazol-2-yl)-2-cyclopropylethyl)pyridine 1-oxide] | 54.4 | –
29 | COC(=O)Nc1ccc(-c2cnc([C@@H](Cc3ccccc3)c3ccc(-c4cc(Cl)ccc4-c4cnco4)c[n+]3[O-])[nH]2)cc1 [Example 26] | 271 | –

Source: patent US9868727B2, “Factor XIa inhibitors” (Merck Sharp & Dohme Corp., priority 2014, dated 2018)
